From US20160206543A1, “SYNERGISTIC COMPOSITIONS AND METHODS FOR MITIGATING SKIN IRRITATION AND ENHANCING SKIN BARRIER FUNCTION” (GOJO INDUSTRIES, INC., priority 2014, published 2016)

Legend:
Format in all cases: cell-based, human
DSC3 = test: Cell-cell junction, qRT-PCR for desmocollin (DSC3); conditions: keratinocytes treated overnight; KGM = 100
From the text: (§1) Tight Junctions are the closely associated areas of two cells whose membranes join together forming a virtually impermeable barrier to fluid. A desmosome is a cell structure specialized for cell-to-cell adhesion. A type of junction complex, they are localized spot-like adhesions randomly arranged on the lateral sides of plasma membranes. Desmosomes are molecular complexes of cell adhesion proteins and linking proteins that attach the cell surface adhesion proteins to intracellular keratin cytoskeletal filaments.
(§2) The cell adhesion proteins of the desmosome, desmoglein (DSG) and desmocollin (DSC), are members of the cadherin family of cell adhesion molecules. They are biomarker of skin tight junctions. In particular, DSG1 is a biomarker for cell binding, the higher the expression, the better skin cell-cell junction and the better skin barrier function will be. DSC3 is a protein in humans that is encoded by the DSC3 gene, the higher the expression, the better skin cell-cell junction and the better skin barrier function will be.
(§3) In the present method, keratinocytes were treated with the sample compositions in a 6-well plate overnight. After washing with cold phosphate-buffered saline (PBS), total RNAs were prepared from each well. Real-Time Quantitative Reverse Transcription PCR (qRT-PCR) was performed to detect the target genes ([…]) expression level using a One-step TaqMan® RT-PCR kit (Life Technologies).
(§4) Samples containing various amounts of acetyl hexapeptide-38 and/or acetyl hexapeptide-46 were tested for cell-cell junction, as described above. Solution of Vitamin D3 and keratinocyte growth medium (KGM) were used for comparison. The results are summarized in Tables 3-4 below, and graphically represented in FIGS. 3-4. It can be seen that compositions containing acetyl hexapeptide-38 and/or acetyl hexapeptide-46 enhanced cell-cell junction when compared to Vitamin D3 and KGM.

DSG1 = test: Cell-cell junction, qRT-PCR for desmoglein (DSG1); conditions: keratinocytes treated overnight; KGM = 100
From the text: as §1, §2, §3, §4

IL-8 = IL-8 ELISA (Part 1, Quantikine kit), surfactant-induced irritation; conditions: for IL-8 secreted: human dermal keratinocytes co-treated with surfactant mixture (sodium laureth sulfate + polyquaternium-10), Control B = 100%, Control A = 0%; for Reduction of IL-8 Secretion Compared to Control B: subtracting from 100% for Control B
From the text: Interleukin 8 (IL-8) is a chemokine and proinflammatory cytokine produced by macrophages and other cell types such as epithelial cells. It is secreted from keratinocytes in skin in response to inflammatory stimuli. IL-8 is secreted and is an important mediator of the immune reaction in the innate immune system response. IL-8 overexpressed is a biomarker of skin irritation.
For Control A, human dermal keratinocytes are left untreated. No irritation is expected, and therefore Control A provides a baseline. For Control B, IL-8 is induced in human dermal keratinocytes by applying a surfactant mixture that is a combination of sodium laureth sulfate and polyquaternium-10. For all other samples, the human dermal keratinocytes are co-treated with the surfactant mixture and a composition containing the ingredient of interest. Decreased Il-8 expression reflects the ingredient's anti-irritation activity.
In order to carry out the test method, an assay kit was employed that was obtained from R&D Systems: Human CXCL8/IL-8 Quantikine ELISA Kit.
The following steps were followed: 1. Bring all reagents and samples to room temperature before use. 2. Prepare all reagents, standard dilutions, and samples. 3. Remove excess microplate strips from the plate frame, return them to the foil pouch containing the desiccant pack, and reseal. 4. Add 100 μL of Assay Diluent to each well. 5. Add 50 μL of Standard, control, or sample to each well. Cover with a plate sealer, and incubate at room temperature for 2 hours. 6. Aspirate each well and wash, repeating the process 3 times for a total of 4 washes. 7. Add 100 μL of Conjugate to each well. Cover with a new plate sealer, and incubate at room temperature for 1 hour. 8. Aspirate and wash 4 times. 9. Add 200 μL Substrate Solution to each well. Incubate at room temperature for 30 minutes, making sure to protect the wells from the light. 10. Add 50 μL of Stop Solution to each well. The liquid was removed from the well and, using a colorimeter, absorbance was measured at 450 nanometers (nm) within 30 minutes. Wavelength correction was set to 540 nm or 570 nm.
The samples were tested for IL-8 secretion as described in the test method above. That is, for Control A, human dermal keratinocytes were left untreated. For Control B, IL-8 a surfactant mixture that was a combination of sodium laureth sulfate and polyquaternium-10. For all other samples, the human dermal keratinocytes were co-treated with the surfactant mixture and a composition containing the ingredient of interest. Decreased 11-8 expression reflects the ingredient's anti-irritation activity. The results are summarized in Table 2 and shown graphically in FIG. 1.
The amount of the reduction in IL-8 secretion for the test samples (subtracting from 100% for Control B) is summarized in Table 2 and shown graphically in FIG. 2. It can be seen that the combination of acetyl hexapeptide-46 and acetyl hexapeptide-38 produce an enhanced reduction in IL-8 secretion, particularly for the higher concentrations.

APQ3 = test: Skin water channel biomarker: APQ3 expression; conditions: FIG. 10
From the text: FIG. 5 is a graphical representation of the effect of various compositions on the irritation response of cells treated with known irritants, as quantified by measuring IL-8 secretion, and on cell viability. FIG. 6 is a graphical representation of Involucrin Expression—Keratinocytes (KC) differentiation. FIG. 7 is a graphical representation of PPARδ expression—ceramides related biomarker. FIG. 8 is a graphical representation of ABCA12 expression—fatty acid related biomarker. FIG. 9 is a graphical representation of DSC1 expression—cell-cell junction biomarker. FIG. 10 is a graphical representation of APQ3 expression—skin water channel.
An in vitro model was employed, using monolayer human dermal keratinocytes culture (KGM). Two controls were tested: the medium and inflammatory cytokines interleukin (IL-1b).
Skin Barrier Biomarkers: ABCA12, Involucrin, PPARδ. Different concentrations of ingredients were used to treat the keratinocyte for 24 hours. Cells were collected and total RNA prepared from the treated cells. Real-time RT-PCT was used to detect different barrier function related biomarker's gene expression level. Comparative Benchmark: Vitamin D3 (cholecalciferol) in three different concentrations.

Molecule	DSC3 % (DSC3) [%]	IL-8 secreted (IL-8) [%]	Reduction of IL-8 Secretion Compared to Control B (IL-8) [%]	other results
Acetyl hexapeptide-38 [Example 3B]	205	–	–	DSG1 % (DSG1): 144%
acetyl hexapeptide-38 [Example 1D]	–	95.80	4.20	–
acetyl hexapeptide-46 [Example 2B]	–	50.90	49.10	–
acetyl hexapeptide-46	–	–	–	effect on IL-8 secretion compared to Control B (in words) (IL-8): reduce the IL-8 secretion; APQ3 expression in KC (in words) (APQ3): does not individually stimulate APQ3 expression
Acetyl hexapeptide-46 [Example 3D]	230	–	–	–
Acetyl hexapeptide-46 [Example 3E]	377	–	–	DSG1 % (DSG1): 162%
acetyl hexapeptide-38 [Example 1G]	–	57.20	42.80	–
acetyl hexapeptide-38 [Example 1B]	–	71.70	28.30	–
acetyl hexapeptide-46 [Example 2D]	–	78.20	21.80	–
acetyl hexapeptide-38 [Example 1C]	–	84.90	15.10	–
Acetyl hexapeptide-46 [Example 3F]	265	–	–	DSG1 % (DSG1): 199%
C=C1CC[C@H](O)C/C1=C/C=C1\CCC[C@]2(C)[C@@H]([C@H](C)CCCC(C)C)CC[C@@H]12 [VitD3, cholecalciferol, reference compound]	109	–	–	DSG1 % (DSG1): 65%
acetyl hexapeptide-46 [Example 2G]	–	−6.90	106.90	–
acetyl hexapeptide-38	–	–	–	effect on IL-8 secretion compared to Control B (in words) (IL-8): reduce the IL-8 secretion
acetyl hexapeptide-38 [Example 1A]	–	69.60	30.40	–
acetyl hexapeptide-46 [Example 2A]	–	27.10	72.90	–
acetyl hexapeptide-46 [Example 2C]	–	65.60	34.40	–
Acetyl hexapeptide-38 [Example 3A]	160	–	–	–
Acetyl hexapeptide-38 [Example 3C]	210	–	–	DSG1 % (DSG1): 178%
